Reference: patent publication US20260166046A1, “Inhibitors of methionine aminopeptidase-2 and methods of preparation and uses thereof” (Primetime Life Sciences LLC, priority 2022, published 2026)
Read-outs that look alike come from different tables or passages of the source.

Columns and labels:
E. histolytica HM1: IMSS = assay: Trophozoite viability IC50 determination, Amebae assay (ATPLite); type: cell-based; conditions: Entamoeba histolytica, read-out: Cell viability values Mean IC50 (nM) E. histolytica HM1: IMSS
Method: (§1) Giardia cultures: Trophozoites of G. lamblia isolates WB and GS were grown anaerobically in borosilicate glass screw-cap culture tubes (Fisher Scientific) at pH 7.0 in modified TYI-S-33 medium. The medium was supplemented with 10% heat-inactivated bovine serum (Sigma-Aldrich) and 0.05% bovine bile (Sigma-Aldrich). To attain low-oxygen-tension conditions, the tubes were filled to 85 to 90% of their total volume capacity and incubated without shaking at 37° C. Subcultures (2×10^5 trophozoites per tube) were made three times a week. Detachment of trophozoites for inoculation was achieved by chilling the cultures on ice for 20 min. Culturing and detachment of Metronidazole-resistant G. lamblia Assemblage A 713M3 and assemblage B 1279-M1 trophozoites followed the same protocol, except that the growth medium was supplemented with metronidazole gradually increasing the concentration to 10 μM. Amebae cultures: E. histolytica strain HM1:IMSS trophozoites were grown at 37° C. in TYI-S-33 medium supplemented with penicillin (100 U/mL) and streptomycin sulfate (100 μg/mL). Trophozoites were grown anaerobically in borosilicate tubes and subcultures were made 1-2 times a week. Trophozoites were detached for inoculation by chilling the cultures on ice for 20 minutes.
(§2) Trophozoite viability IC50determination
(§3) Giardia assays: 10 μL giardia trophozoites in growth medium were plated at a density of 10,000 cells/well in sterile 96-well black clear bottom assay plates. Fumagillin and fumagillol derivatives were 1:3 serially diluted from a 1 μM DMSO stock solution and then 100 μL/well were transferred in duplicate to the assay wells. Metronidazole (control) was 1:3 serially diluted in growth medium from a 100 μM stock solution in DMSO. The assay plates were placed in a BD GasPak™ EZ Container System (BD Diagnostics) to create an anaerobic growth environment. The sealed containers were incubated at 37° C. for 72 hr. Following incubation, 70 μL/well of the ATPLite reagent (PerkinElmer) was added to the assay plates for one-step lysis and ATP level detection. The luminescent signals of the assay plates were measured on an EnSpire 2300 plate reader (PerkinElmer). Concentration response titration points for each compound were fitted to a 4-parameters logistic nonlinear regression model using KaleidaGraph, yielding the IC50value and standard error (SE).
Amebae assays: The protocol is identical to that described above except that the trophozoites were plated at a density of 5000 cells/well because of their larger size.

G. lamblia GS = assay: Trophozoite viability IC50 determination, Giardia assay (ATPLite); type: cell-based; conditions: Giardia duodenalis, read-out: Cell viability values Mean IC50 (nM) G. lamblia GS
Method: as §1, §2, §3

G. lamblia WB = assay: as above; type: cell-based; conditions: Giardia duodenalis, read-out: Cell viability values Mean IC50 (nM) G. lamblia WB
Method: as §1, §2, §3

Recombinant human MetAP2 = target: T1, Recombinant human MetAP2 (Homo sapiens, UniProt P50579); assay: MetAP2 fluorescence assay; type: biochemical; conditions: recombinant human MetAP2, H-Met-Gly-Pro-AMC substrate
T1 construct: purchased Bio-Techne/R&D systems
T1 sequence (P50579 whole entry): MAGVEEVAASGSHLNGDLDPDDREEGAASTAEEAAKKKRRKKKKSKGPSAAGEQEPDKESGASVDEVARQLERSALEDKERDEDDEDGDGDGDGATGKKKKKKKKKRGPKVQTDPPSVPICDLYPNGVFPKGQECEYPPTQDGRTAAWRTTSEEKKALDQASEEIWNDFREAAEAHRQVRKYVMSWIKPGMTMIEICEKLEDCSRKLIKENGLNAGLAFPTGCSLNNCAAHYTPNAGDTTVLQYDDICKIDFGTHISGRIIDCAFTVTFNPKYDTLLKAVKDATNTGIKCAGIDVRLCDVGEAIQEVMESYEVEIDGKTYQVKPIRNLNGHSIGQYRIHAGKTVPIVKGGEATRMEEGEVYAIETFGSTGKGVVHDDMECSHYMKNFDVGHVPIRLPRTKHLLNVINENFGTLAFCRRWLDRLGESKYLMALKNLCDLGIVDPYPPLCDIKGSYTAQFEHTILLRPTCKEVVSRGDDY
Method: MetAP2 Fluorescence Assay
Recombinant human MetAP2 (Bio-Techne/R&D systems) was diluted to 10 μg/mL in the assay buffer (50 mM HEPES, 0.1 mM CoCl2, 100 mM NaCl, pH 7.5). The substrate, H-Met-Gly-Pro-AMC (Bio-Techne/R&D systems), was diluted to 500 μM with 2 μg/mL of the coupling enzyme, recombinant human dipeptidyl peptidase-4 (Bio-Techne/R&D systems), in assay buffer. 50 μL of 10 μg/mL recombinant human METAP2 were loaded into a flat-bottom black 96-well plate (Greiner Bio), and the reaction was initiated by adding 50 μL of the substrate/dipeptidyl peptidase-4 mixture. The reaction mixture was incubated at room temperature for 10 minutes, and the fluorescence was measured for 5 minutes at excitation and emission wavelengths of 380 nm and 460 nm, respectively, in kinetic mode. For IC50determination, 0.5 μL inhibitor solution was added to the reaction mixture. The reaction rates were used to calculate IC50with KaleidaGraph.

[1] = trophozoites, 72 hr, anaerobic, ATP level

Row | Structure (SMILES) | IC50 (E. histolytica HM1: IMSS; 72 h) | IC50 (G. lamblia GS; 72 h) | IC50 (G. lamblia WB; 72 h) | IC50 (Recombinant human MetAP2) | IC50 (E. histolytica HM1: IMSS; [1]) | IC50 (G. lamblia GS; [1]) | IC50 (G. lamblia WB; [1])
1 | CO[C@@H]1[C@H](OC(=O)Nc2cc(B(O)O)cc([N+](=O)[O-])c2)CC[C@]2(CO2)[C@H]1[C@@]1(C)O[C@@H]1CC=C(C)C [No 33] | > 1000 nM | 101 to 1000 nM | > 1000 nM | < 10 nM | – | – | –
2 | CO[C@@H]1[C@H](OC(=O)N(C)c2cc(B(O)O)c3occc3c2)CC[C@]2(CO2)[C@H]1[C@@]1(C)O[C@@H]1CC=C(C)C [No 54] | > 1000 nM | 101 to 1000 nM | > 1000 nM | < 10 nM | – | – | –
3 | CO[C@@H]1[C@H](OC(=O)Nc2cc(Cl)c3c(c2)B(O)OC3)CC[C@]2(CO2)[C@H]1[C@@]1(C)O[C@@H]1CC=C(C)C [No 10] | 10.1 to 100 nM | 10.1 to 100 nM | 10.1 to 100 nM | < 10 nM | – | – | –
4 | CO[C@@H]1[C@H](OC(=O)Nc2cc(C#N)cc(B(O)O)c2)CC[C@]2(CO2)[C@H]1[C@@]1(C)O[C@@H]1CC=C(C)C [No 25] | > 1000 nM | 101 to 1000 nM | 101 to 1000 nM | < 10 nM | – | – | –
5 | CO[C@@H]1[C@H](OC(=O)Nc2ccc3c(c2)C(C)(C)OB3O)CC[C@]2(CO2)[C@H]1[C@@]1(C)O[C@@H]1CC=C(C)C [No 3] | < 10 nM | < 10 nM | < 10 nM | < 10 nM | – | – | –
6 | CO[C@@H]1[C@H](OC(=O)Nc2cc(B(O)O)ccc2Cl)CC[C@]2(CO2)[C@H]1[C@@]1(C)O[C@@H]1CC=C(C)C [No 23] | 101 to 1000 nM | 101 to 1000 nM | 101 to 1000 nM | < 10 nM | – | – | –
7 | CO[C@@H]1[C@H](OC(=O)N[C@@H](C)B(O)O)CC[C@]2(CO2)[C@H]1[C@@]1(C)O[C@@H]1CC=C(C)C [No 69] | > 1000 nM | 10.1 to 100 nM | > 1000 nM | < 10 nM | – | – | –
8 | CO[C@@H]1[C@H](OC(=O)N2CC=C(B(O)O)CC2)CC[C@]2(CO2)[C@H]1[C@@]1(C)O[C@@H]1CC=C(C)C [No 53] | > 1000 nM | 101 to 1000 nM | > 1000 nM | < 10 nM | – | – | –
9 | CO[C@@H]1[C@H](OC(=O)N[C@H](CC(C)C)B(O)O)CC[C@]2(CO2)[C@H]1[C@@]1(C)O[C@@H]1CC=C(C)C [No 68] | > 1000 nM | 101 to 1000 nM | > 1000 nM | < 10 nM | – | – | –
10 | CO[C@@H]1[C@H](OC(=O)Nc2csc(B(O)O)c2)CC[C@]2(CO2)[C@H]1[C@@]1(C)O[C@@H]1CC=C(C)C [No 40] | > 1000 nM | 101 to 1000 nM | > 1000 nM | < 10 nM | – | – | –
11 | CO[C@@H]1[C@H](OC(=O)Nc2ccc3c(c2)B(O)OC3)CC[C@]2(CO2)[C@H]1[C@@]1(C)O[C@@H]1CC=C(C)C [No 6] | 10.1 to 100 nM | < 10 nM | 10.1 to 100 nM | < 10 nM | – | – | –
12 | CO[C@@H]1[C@H](OC(=O)Nc2ccc(B(O)O)c(C(C)C)c2)CC[C@]2(CO2)[C@H]1[C@@]1(C)O[C@@H]1CC=C(C)C [No 62] | > 1000 nM | 101 to 1000 nM | > 1000 nM | < 10 nM | – | – | –
13 | CO[C@@H]1[C@H](OC(=O)N2CCc3cc(B(O)O)cnc3C2)CC[C@]2(CO2)[C@H]1[C@@]1(C)O[C@@H]1CC=C(C)C [No 41] | > 1000 nM | 10.1 to 100 nM | 101 to 1000 nM | < 10 nM | – | – | –
14 | CO[C@@H]1[C@H](OC(=O)Nc2c(F)cccc2B(O)O)CC[C@]2(CO2)[C@H]1[C@@]1(C)O[C@@H]1CC=C(C)C [No 35] | – | – | – | < 10 nM | > 1000 nM | 101 to 1000 nM | > 1000 nM
15 | CO[C@@H]1[C@H](OC(=O)Nc2ccc3c(c2)C(C)OB3O)CC[C@]2(CO2)[C@H]1[C@@]1(C)O[C@@H]1CC=C(C)C (stereo partly shown) [No 2] | – | – | – | < 10 nM | < 10 nM | < 10 nM | < 10 nM
16 | CO[C@@H]1[C@H](OC(=O)Nc2ccc(B(O)O)cc2)CC[C@]2(CO2)[C@H]1[C@@]1(C)O[C@@H]1CC=C(C)C [No 17] | – | – | – | < 10 nM | 10.1 to 100 nM | < 10 nM | 10.1 to 100 nM
17 | CO[C@@H]1[C@H](OC(=O)N2CCCC2B(O)O)CC[C@]2(CO2)[C@H]1[C@@]1(C)O[C@@H]1CC=C(C)C (stereo partly shown) [No 60] | > 1000 nM | 10.1 to 100 nM | > 1000 nM | < 10 nM | – | – | –
18 | CO[C@@H]1[C@H](OC(=O)Nc2cc(C)cc(B(O)O)c2)CC[C@]2(CO2)[C@H]1[C@@]1(C)O[C@@H]1CC=C(C)C [No 28] | 101 to 1000 nM | 10.1 to 100 nM | 101 to 1000 nM | < 10 nM | – | – | –
19 | CO[C@@H]1[C@H](OC(=O)N(C)c2ccc3c(c2)CCOB3O)CC[C@]2(CO2)[C@H]1[C@@]1(C)O[C@@H]1CC=C(C)C [No 15] | 101 to 1000 nM | 101 to 1000 nM | 101 to 1000 nM | < 10 nM | – | – | –
20 | CO[C@@H]1[C@H](OC(=O)NCc2cccc(B(O)O)c2)CC[C@]2(CO2)[C@H]1[C@@]1(C)O[C@@H]1CC=C(C)C [No 29] | 101 to 1000 nM | 101 to 1000 nM | 101 to 1000 nM | < 10 nM | – | – | –
21 | CO[C@@H]1[C@H](OC(=O)NCCB(O)O)CC[C@]2(CO2)[C@H]1[C@@]1(C)O[C@@H]1CC=C(C)C [No 63] | 101 to 1000 nM | 10.1 to 100 nM | 101 to 1000 nM | < 10 nM | – | – | –
22 | CO[C@@H]1[C@H](OC(=O)NC(CF)c2ccc(B(O)O)cc2)CC[C@]2(CO2)[C@H]1[C@@]1(C)O[C@@H]1CC=C(C)C (stereo partly shown) [No 48] | > 1000 nM | 101 to 1000 nM | > 1000 nM | < 10 nM | – | – | –
23 | CO[C@@H]1[C@H](OC(=O)N2CCc3cc(B(O)O)ccc3C2)CC[C@]2(CO2)[C@H]1[C@@]1(C)O[C@@H]1CC=C(C)C [No 44] | > 1000 nM | 10.1 to 100 nM | > 1000 nM | < 10 nM | – | – | –
24 | CO[C@@H]1[C@H](OC(=O)Nc2cc(B(O)O)c3occc3c2)CC[C@]2(CO2)[C@H]1[C@@]1(C)O[C@@H]1CC=C(C)C [No 49] | > 1000 nM | 10.1 to 100 nM | 101 to 1000 nM | < 10 nM | – | – | –
25 | CO[C@@H]1[C@H](OC(=O)Nc2ccccc2B(O)O)CC[C@]2(CO2)[C@H]1[C@@]1(C)O[C@@H]1CC=C(C)C [No 19] | 101 to 1000 nM | 10.1 to 100 nM | 101 to 1000 nM | < 10 nM | – | – | –
